The values that follow are results of earlier work, collected in US20140045806A1 (priority 2012, published 2014).

In the data set the test system is vaginal nerve fibers. Conditions: Pessina, Hoyt et al. 2006; cited from earlier work.

Regarding `C[C@]12CC[C@H]3[C@@H](CCC4=CC(=O)CC[C@@]43C)[C@@H]1CC[C@@H]2O` [testosterone], the “Number and size of the nerve terminals in the lamina propria” value is “increases the number and size of the nerve terminals”.

With `CC(=O)[C@H]1CC[C@H]2[C@@H]3CCC4=CC(=O)CC[C@]4(C)[C@H]3CC[C@]12C` [progesterone], the “Number and size of the nerve terminals in the lamina propria” value was “no effect”.
